Measurements taken from patent US20260183295A1, “METHODS AND COMPOSITIONS FOR TREATING CANCER” (Onconova Therapeutics, Inc., priority 2022, published 2026).

How the values were obtained:
Type in all cases: cell-based
MDA-MB-468 = assay: Cell viability after 72 hours treatment; conditions: MDA-MB-468 (TNBC)
Description: (§1) The effects on the different treatment conditions on BUB 1 levels and PARP cleavage were also assessed. For both MNA-MB-231 cells, Compound 1 alone or with HCQ or SBI decreased BUB1 levels and cleaved PARP with […] decreases in cell viability observed for all treatments except Compound 1+SBI in MMA-MB-231 cells. The effects of Compound 1 with or without autophagy inhibitors was less pronounced in HCC-1937 cells.

HCC-1937 = assay: Cell viability after 72 hours treatment; conditions: HCC-1937 (TNBC)
Description: as §1

Caspase 3/7 [1] = assay: Caspase 3/7 Glo assay, MDA-MB-231 cells, 24 hours
Description: To determine how Compound 1 induces cell death, Caspase 3/7 activity was measured using the Caspase 3/7 Glo assay.
The effect of zVAD-FMK treatment on Caspase 3/7 activity was assessed.

Hs578T spheroids = assay: CellTiter Glo 3D spheroid viability; conditions: 48 hours; Compound 1, Comparator 1, Comparator 2 5 μM; Comparator 4 10 μM
Description: Viability of the spheroids was assessed using CellTiter Glo 3D.

Caspase 3/7 [2] = assay: Caspase 3/7 Glo assay with or without bafilomycin A1, MDA-MB-231 cells, 2 days; conditions: 5 μM
From the text: FIGS. 34 and 35 show Caspase 3/7 activity as measured by the Caspase 3/7 Glo assay. […] The effect was enhanced by co-treatment with bafilomycin A1 cotreatment.

MDA-MB-231 cells [3] = assay: MTT assay, 24 hours; conditions: zVAD-FMK 20 μM (FIG. 25)
MDA-MB-231 cells [4] = assay: Annexin V/PI staining followed by FACS, 24 hours; conditions: for cell death (Annexin V/PI): Compound 1, Comparator 1, 2 5 μM, Comparator 4 10 μM; for effect of zVAD-FMK on cell death, Annexin V/PI staining: zVAD-FMK 20 μM (FIG. 24)
Description: To determine the effect of the different treatment conditions on cell death, Annexin V/PI staining was performed.

[5] = test system: T-47D, HCC-1937, HS-578T, BT-474, MDA-MB-468, and MD-MB-453 cell lines; assay: MTT cell viability of breast cancer cell line panel versus comparators, 48 hrs (FIG. 17); conditions: Comparator 4 10 μM, Comparator 1 and 2 5 μM, Compound 1 2.5, 5.0, 10 μM
[6] = Compound 1, Comparator 1, 2 5 μM, Comparator 4 10 μM (FIG. 22)
[7] = without zVAD-FMK, relative to DMSO (FIG. 26)

Question: For `CC(=O)c1c(C)c2cnc(Nc3ccc(N4CCNCC4)cn3)nc2n(C2CCCC2)c1=O` [Comparator 1, palbociclib], which “72 h-cell viability decrease” value (MDA-MB-468) is on record?
Answer: 10%

Question: What about the “72 h-cell viability decrease” value (HCC-1937) of the same compound?
Answer: 15%

Question: And the “Caspase 3/7 activity” value (Caspase 3/7 [1]; [6])?
Answer: no effect

Question: And the “decrease in organoid viability compared to DMSO” value (shortened to “decrease in organoid viability”) (Hs578T spheroids)?
Answer: no effect

Question: And the “Caspase 3/7 activity, compound alone” value (Caspase 3/7 [2])?
Answer: no effect

Question: With `CN(C)C(=O)c1cc2cnc(Nc3ccc(N4CCNCC4)cn3)nc2n1C1CCCC1` [Comparator 2, ribociclib] as the compound, how does the “Caspase 3/7 activity” value (Caspase 3/7 [1]; [6]) read?
Answer: no effect

Question: What about the “Caspase 3/7 activity” value (Caspase 3/7 [1]; [7]) of the same compound?
Answer: not increased

Question: What about the “decrease in organoid viability” value (Hs578T spheroids) of the same compound?
Answer: no effect

Question: And the “effect of zVAD-FMK on cell death, MTT assay” value (MDA-MB-231 cells [3])?
Answer: similarly unaffected

Question: And the “cell death (Annexin V/PI)” value (MDA-MB-231 cells [4])?
Answer: neither Comparator 1 nor Comparator 2 treatment induced cell death

Question: What about the “effect of zVAD-FMK on cell death, Annexin V/PI staining” value (MDA-MB-231 cells [4]) of the same compound?
Answer: similarly unaffected

Question: With `CCN1CCN(Cc2ccc(Nc3ncc(F)c(-c4cc(F)c5nc(C)n(C(C)C)c5c4)n3)nc2)CC1` [Comparator 3, abemaciclib] as the compound, how does the “72 h-cell viability decrease” value (MDA-MB-468) read?
Answer: 50%

Question: And the “72 h-cell viability decrease” value (HCC-1937)?
Answer: 10%

Question: How did the “Caspase 3/7 activity” value (Caspase 3/7 [1]; [6]) turn out when `CC(C)C[C@H](NC(=O)[C@H](Cc1ccccc1)NC(=O)c1cnccn1)B(O)O` [Comparator 4, bortezomib] was run?
Answer: greatest increase

Question: What about the “Caspase 3/7 activity” value (Caspase 3/7 [1]; [7]) of the same compound?
Answer: large increase

Question: What about the “effect of zVAD-FMK on induced Caspase 3/7 activity” value (Caspase 3/7 [1]; zVAD-FMK 20 μM (FIG. 26)) of the same compound?
Answer: completely inhibited

Question: And the “decrease in organoid viability” value (Hs578T spheroids)?
Answer: significant cell death

Question: What about the “effect of zVAD-FMK on cell death, MTT assay” value (MDA-MB-231 cells [3]) of the same compound?
Answer: partially blocked

Question: What about the “cell death (MTT), comparison of treatments” value [5] of the same compound?
Answer: induced cell death to the greatest extent

Question: What about the “cell death (Annexin V/PI)” value (MDA-MB-231 cells [4]) of the same compound?
Answer: ~55%

Question: What about the “effect of zVAD-FMK on cell death, Annexin V/PI staining” value (MDA-MB-231 cells [4]) of the same compound?
Answer: partially blocked
